Measurements published in publication PMC9138994 (Biomolecules, 2022).

Experiments:
[1] = biological target: T1, human 5-HT7b (Homo sapiens, UniProt P34969); assay: Radioligand displacement assay at 5-HT7 ([3H]-5-CT, HEK293 cells); type: binding; details: HEK293 cells stably expressing h5-HT7, read-out: Ki (n), 5-HT7
T1 construct: expressed in transfected cells; host or cells: HEK293
Protocol: (§1) HEK293 cells with a stable expression of human 5-HT1A, 5-HT6, 5-HT7b, and D2L (prepared with the use of Lipofectamine 2000), or CHO-K1 cells with plasmids containing the sequence coding for the human serotonin 5-HT2A receptor (PerkinElmer), were maintained at 37 °C in a humidified atmosphere with 5% CO2 and grown in Dulbecco’s Modified Eagle Medium containing 10% dialyzed fetal bovine serum and 500 µg/mL G418 sulfate. For membrane preparation, cells were subcultured in 150 cm^2 flasks, grown to 90% confluence, washed twice with prewarmed to 37 °C phosphate buffered saline (PBS) and pelleted by centrifugation (200× g) in PBS containing 0.1 mM EDTA and 1 mM dithiothreitol. Prior to membrane preparation, the pellets were stored at −80 °C.
(§2) Cell pellets were thawed and homogenized in 10 volumes of assay buffer using an Ultra Turrax tissue homogenizer, and were then centrifuged twice at 35,000× g for 15 min at 4 °C, with incubations for 15 min at 37 °C in between. […] The process of equilibration was terminated by rapid filtration through Unifilter plates with a 96-well cell harvester and the radioactivity retained on the filters was quantified on a Microbeta plate reader (PerkinElmer, Waltham, MA, USA). […] The inhibition constants (Ki) were calculated from the Cheng-Prusoff equation [38]. Results are expressed as means of two separate experiments.

[2] = test system: C57BL/6 mice; assay: Forced swim test (FST); type: in vivo; details: for immobility time in FST: acute i.p. pretreatment, ST-2300 or PIM 5, 10, 15 mg/kg, vs saline controls, adult male C57BL/6 mice, 6 min
Protocol: (§3) Inbred adult male C57BL/6 mice (aged 10–12 weeks and weighing 20–25 g) were obtained from the animal facility in the College of Medicine and Health Sciences, United Arab Emirates University. The animals were maintained in a separate air-conditioned room with controlled temperature and humidity (24 ± 2 °C and 55 ± 15%, respectively), with a 12 h light/dark cycle, and ad libitum to food and water. All the experiments were performed between 9.00 am and 3.00 pm. The procedures were approved by the Institutional Animal Ethics Committee of College of Medicine and Health Sciences/United Arab Emirates University (Approval No. ERA-2019-6010). To reduce the suffering of the animals, a minimum number of animals were used in this study, whereas the objectives were not compromised.
(§4) These experiments provide the first behavioral assessment of the ST-2300 in anxiety-like and depression-like behaviors in mice. All doses are expressed in terms of the free base of all test compounds. The drugs used in the current study were dissolved in saline and injected i.p. at a volume of 1 mL/kg. All experimental procedures were conducted in a blinded fashion in which the experimenter was uninformed about the specific treatment groups to which an animal group belonged. Saline, ST-2300 (5, 10, and 15 mg/kg), PIM (5, 10, and 15 mg/kg), FLX (10 mg/kg), RAM (10 mg/kg), and DZP (1 mg/kg) were injected i.p. 30–45 min before the beginning of the behavioral experiments.
The FST test was performed according to previously described protocols. Mice were individually placed into glass cylinders containing 15 cm of water at ∼25 °C. The mice were left in the cylinders for 6 min and immobility was observed and analyzed. The mice were then removed from the container and left to dry in a heated enclosure before being returned to their home cages. The mice were considered to be immobile when they ceased struggling and remained floating motionless in the water (without any vertical or horizontal movements), making only the movements necessary to keep their heads above the water level as described previously.

[3] = biological target: T2, human 5-HT6 (Homo sapiens, UniProt P50406); assay: Radioligand displacement assay at 5-HT6 ([3H]-LSD, HEK293 cells); type: binding; details: HEK293 cells stably expressing h5-HT6, read-out: Ki ± SD (n), 5-HT6
T2 construct: expressed in transfected cells; host or cells: HEK293
T2 sequence (P50406 whole entry): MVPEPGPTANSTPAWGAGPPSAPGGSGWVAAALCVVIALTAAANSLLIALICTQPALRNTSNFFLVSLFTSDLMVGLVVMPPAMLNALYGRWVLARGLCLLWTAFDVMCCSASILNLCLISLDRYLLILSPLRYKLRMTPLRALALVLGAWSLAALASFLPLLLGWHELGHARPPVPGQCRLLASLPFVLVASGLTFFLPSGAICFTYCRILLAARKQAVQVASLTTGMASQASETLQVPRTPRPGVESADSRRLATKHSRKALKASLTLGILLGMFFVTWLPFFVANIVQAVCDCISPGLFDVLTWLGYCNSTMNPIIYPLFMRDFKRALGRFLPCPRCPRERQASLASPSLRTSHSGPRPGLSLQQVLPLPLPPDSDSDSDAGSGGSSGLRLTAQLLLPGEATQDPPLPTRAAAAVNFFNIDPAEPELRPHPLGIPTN
Protocol: as §1, §2

[4] = test system: C57BL/6 mice; assay: Open field test (OFT); type: in vivo; details: for time spent in the center of the arena in OFT (anxiety level) / number of total line crossings in OFT (locomotor activity): i.p. pretreatment, 10 min test session; for time spent in the center of the arena in OFT (anxiety level): ST-2300 10 or 15 mg/kg, PIM 5–15 mg/kg, DZP 1 mg/kg, vs controls; for number of total line crossings in OFT (locomotor activity): ST-2300 or PIM 5–15 mg/kg, C57BL/6 mice
Protocol: as §3, §4
To analyze the effect of ST-2300 on locomotion and anxiety behaviors in animals, OFT was carried out. In addition to locomotor activity, the OFT is usually used to measure anxiety-like behaviors in experimental rodents. The test provides a unique opportunity to systematically assess novel environment exploration, general locomotor activity, and provide an initial screen for anxiety-related behavior in experimental rodents. The OF box consisted of a square box (45 × 45 × 30 cm). A 23 × 23 cm area in the center region was defined as the central arena, and the remaining area was defined as periphery area. The mice with a higher degree of anxiety prefer to stay closer to the walls of the box and spend less time in the center, whereas increased time spent in the central area indicates low anxiety level and high exploratory behaviors. The first 5 min of the experiment were considered as habituation, followed by 10 min test session. Total distance moved in the whole arena, time spent in the center, and in the periphery were recorded for 10 min using a charge-coupled, camera-assisted, motion-tracking apparatus and software (EthoVision 3.1, Noldus Information Technology, Wageningen, The Netherlands). After each mouse completed the test, the OF chamber was cleaned thoroughly with 70% (volume/volume; vol/vol) alcohol.

T1 sequence (P34969 1-432): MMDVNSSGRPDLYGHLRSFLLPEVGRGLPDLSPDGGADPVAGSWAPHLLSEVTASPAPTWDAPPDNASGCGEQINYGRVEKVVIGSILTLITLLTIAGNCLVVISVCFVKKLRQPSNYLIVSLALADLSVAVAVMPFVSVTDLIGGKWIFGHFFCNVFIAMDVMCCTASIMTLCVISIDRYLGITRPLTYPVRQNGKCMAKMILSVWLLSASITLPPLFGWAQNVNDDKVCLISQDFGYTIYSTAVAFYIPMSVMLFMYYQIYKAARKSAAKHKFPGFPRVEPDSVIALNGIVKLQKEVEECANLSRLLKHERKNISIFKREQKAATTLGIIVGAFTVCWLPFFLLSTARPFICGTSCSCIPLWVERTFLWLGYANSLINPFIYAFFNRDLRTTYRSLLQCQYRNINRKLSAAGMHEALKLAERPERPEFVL

Structure (SMILES)	Ki [1] [µM]	immobility time in FST, co-administration of RAM ([2]; ST-2300 10 mg/kg i.p. co-administered with H3R agonist RAM 10 mg/kg i.p., vs ST-2300 alone)	immobility time in FST [2]	Ki [3] [µM]	time spent in the center in OFT, co-administration of RAM ([4]; ST-2300 10 mg/kg i.p. co-administered with RAM 10 mg/kg i.p.)	time spent in the center of the arena in OFT (anxiety level) [4]	number of total line crossings in OFT (locomotor activity) [4]
CN1CCC(N(Cc2ccc(F)cc2)C(=O)NCc2ccc(OCCCN3CCCCC3)cc2)CC1 [ST-2300, 1-(4-Fluorobenzyl)-1-(1-methylpiperidin-4-yl)-3-{4-[3-(piperidin-1-yl)propoxy]benzyl}urea]	> 10	significant increase of immobility time	significant and dose-dependent decrease of immobility time	> 10	could not be reversed by co-administration with RAM	dose-dependent increase of time spent in the center of the arena	did not alter the number of total line crossings
CC(C)COc1ccc(CNC(=O)N(Cc2ccc(F)cc2)C2CCN(C)CC2)cc1 [Pimavanserin, reference compound]	> 10	–	significant and dose-dependent decrease of immobility time	0.059 ± 0.011	–	failed to provide any appreciable effects on the anxiety levels	did not alter the number of total line crossings
